Laboratory results taken from PubChem BioAssay (NCI).
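Exposure lasted 48 hours, with cells grown in 96-well plates and compounds tested at five concentrations. GI50: concentration for 50% inhibition of growth. TGI denotes the concentration required for complete inhibition of growth.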

Experiments:
Experiment in all cases: growth of human tumour cells (NCI), 48 h
MALME-3M melanoma = tested on: MALME-3M melanoma
OVCAR-8 ovarian = tested on: OVCAR-8 ovarian
SK-MEL-28 melanoma = tested on: SK-MEL-28 melanoma
TK-10 renal = tested on: TK-10 renal
HCC-2998 colon = tested on: HCC-2998 colon
CAKI-1 renal = tested on: CAKI-1 renal
OVCAR-5 ovarian = tested on: OVCAR-5 ovarian
UACC-62 melanoma = tested on: UACC-62 melanoma
CCRF-CEM leukemia = tested on: CCRF-CEM leukemia
LOX IMVI melanoma = tested on: LOX IMVI melanoma

SMILES | TGI (MALME-3M melanoma) | TGI (OVCAR-8 ovarian) | TGI (SK-MEL-28 melanoma) | TGI (TK-10 renal) | TGI (HCC-2998 colon) | TGI (CAKI-1 renal) | TGI (OVCAR-5 ovarian) | TGI (UACC-62 melanoma) | TGI (CCRF-CEM leukemia) | TGI (LOX IMVI melanoma) | GI50 (LOX IMVI melanoma) | GI50 (MALME-3M melanoma) | GI50 (OVCAR-8 ovarian) | GI50 (SK-MEL-28 melanoma) | GI50 (TK-10 renal) | GI50 (HCC-2998 colon) | GI50 (CCRF-CEM leukemia) | GI50 (CAKI-1 renal) | GI50 (OVCAR-5 ovarian)
Oc1ccc2ccccc2c1OCc1nnc(CCCCCCCCc2nnc(COc3c(O)ccc4ccccc34)n2Nc2ccccc2)n1Nc1ccccc1 | 56.2 µM | 63.1 µM | > 87.7 µM | > 100 µM | 31 µM | > 56.5 µM | > 95.9 µM | 26.6 µM | – | – | – | – | – | – | – | – | – | – | –
O=C1CCCCC/C1=C\c1cccc(F)c1 | > 100 µM | > 100 µM | > 100 µM | > 100 µM | > 100 µM | > 100 µM | > 100 µM | > 100 µM | 81.4 µM | – | – | – | – | – | – | – | – | – | –
CC(c1ccccc1)n1cncc1C(=O)NN1CCN(C)CC1 (centres undefined) | > 10 µM | > 10 µM | > 10 µM | > 10 µM | – | > 10 µM | > 10 µM | > 10 µM | > 10 µM | > 10 µM | – | – | – | – | – | – | – | – | –
Cc1cc2c(=O)c3ccc(Cl)cc3[nH]c2c(C(N)=O)c1C | > 100 µM | > 100 µM | > 100 µM | > 100 µM | > 100 µM | – | > 100 µM | > 100 µM | > 100 µM | > 100 µM | – | – | – | – | – | – | – | – | –
O=[N+]([O-])c1ccc(N2N=C(c3c(O)ccc4ccccc34)CC2c2ccc(Cl)cc2)c([N+](=O)[O-])c1 (centres undefined) | 63 µM | > 100 µM | > 100 µM | > 100 µM | > 100 µM | 93.2 µM | > 100 µM | 60.4 µM | 31 µM | – | – | – | – | – | – | – | – | – | –
COc1cccc2c1OC1c3ccccc3OCC1(O)C2 (centres undefined) | > 100 µM | > 100 µM | – | > 100 µM | > 100 µM | > 100 µM | > 100 µM | > 100 µM | > 100 µM | > 100 µM | – | – | – | – | – | – | – | – | –
O=C(O)Cn1c2c(c3c1-c1ccccc1C3=O)C(=O)CCC2 | > 100 µM | > 100 µM | > 100 µM | > 100 µM | > 100 µM | > 100 µM | > 100 µM | – | > 100 µM | > 100 µM | > 100 µM | > 100 µM | > 100 µM | > 100 µM | > 100 µM | > 100 µM | 32 µM | > 100 µM | > 100 µM
Oc1c(Cl)cc2cc1-c1cc(cc(Cl)c1O)CCc1c(cc(Cl)c(O)c1Cl)-c1cc(Cl)c(c(Cl)c1O)/C=C\2 | – | 16.1 µM | 19.3 µM | – | 13.9 µM | – | 19.5 µM | 18 µM | > 50 µM | 20 µM | – | – | – | – | – | – | – | – | –
CC(=O)/C=C/c1ccccc1 | > 100 µM | 72.9 µM | > 100 µM | > 100 µM | > 100 µM | > 100 µM | > 100 µM | > 100 µM | > 100 µM | – | – | – | – | – | – | – | – | – | –
COc1c(C)c(C/C=C(\C)CCCC(C)CCCC(C)CCCC(C)C)c(OC)c2ccccc12 (centres undefined) | – | > 100 µM | – | > 100 µM | > 100 µM | > 100 µM | > 100 µM | > 100 µM | > 100 µM | > 100 µM | – | – | – | – | – | – | – | – | –
COC(=O)/C=C\n1nc(Br)c(=O)[nH]c1=O | > 100 µM | > 100 µM | > 100 µM | > 100 µM | > 100 µM | > 100 µM | > 100 µM | – | > 100 µM | > 100 µM | – | – | – | – | – | – | – | – | –
